Data as given in patent US20250144067A1, “PERSONALIZED STARVATION THERAPY FOR CANCER” (Faeth Therapeutics, Inc., priority 2021, published 2025).
Counter-ions that a name gives are not always drawn. Like-named read-outs stand apart in the source and are kept apart here.

Columns and labels:
[1] = test system: NCI-H292 lung cancer cells; experiment: FDA drug screening, complete media vs cholesterol-free media without statin (TABLE 1); format: cell-based, human
[2] = test system: NCI-H292 lung cancer cells; experiment: FDA drug screening, complete media vs cholesterol-free media with simvastatin (TABLE 2); format: cell-based, human
[3] = Complete minus Cholesterol-free, >0 enhanced anti-cancer activity, about 0 neutral, <0 antagonist
[4] = NCI-H292 cells, cholesterol-free media without statin, FDA drug library screen
[5] = NCI-H292 cells, complete media, FDA drug library screen
[6] = NCI-H292 cells, FDA drug library screen, cholesterol-free media with simvastatin 0.04 μM
[7] = NCI-H292 cells, FDA drug library screen, complete media
[8] = complete media vs cholesterol-free media + simvastatin (0.04 μM), >0 enhanced anti-cancer activity, about 0 neutral, <0 antagonist
[9] = NCI-H292 cells, cholesterol-free media without statin
[10] = complete vs cholesterol-free media, greater than 0 enhanced anti-cancer activity, about 0 neutral, below 0 antagonists
[11] = NCI-H292 cells, FDA library drug in cholesterol-free media with simvastatin 0.04 μM
[12] = NCI-H292 cells, FDA library drug in complete media
[13] = Complete minus Cholesterol-free, […]
[14] = NCI-H292 cells, drug in cholesterol-free media with simvastatin 0.04 μM
[15] = NCI-H292 cells, drug in complete media
[16] = complete media vs cholesterol-free media + simvastatin (0.04 μM), […]
[17] = Complete minus Cholesterol-free, greater than 0 enhanced anti-cancer activity, about 0 neutral, below 0 antagonists
[18] = NCI-H292 cells in cholesterol-free media without statin
[19] = NCI-H292 cells in complete media
[20] = complete vs cholesterol-free media, >0 enhanced anti-cancer activity, about 0 neutral, <0 antagonist
[21] = complete media minus cholesterol-free media + simvastatin, >0 enhanced anti-cancer activity, about 0 neutral, <0 antagonist
[22] = NCI-H292 cells, cholesterol-free media with simvastatin 0.04 μM, cell growth value in FDA drug screen
[23] = NCI-H292 cells, complete media, cell growth value in FDA drug screen

Row | Molecule | Cholesterol-free [1, 4] | Complete [1, 5] | Cholesterol-free media + simvastatin (0.04 μM) [2, 6] | Complete Media [2, 7] | Difference [2, 8] | Cholesterol-free media + simvastatin (0.04 μM) [2, 14] | Complete Media [2, 15] | Difference [1, 20] | Difference [2, 21] | also measured
1 | c1ccc2c(c1)CCCC2C1=NCCN1 (centres unmarked) [Tetrahydrozoline (hydrochloride)] | 0.9833 | 0.9541 | 1.06 | 0.9332 | −0.13 |  |  |  |  | Difference [1, 3]: −0.03
2 | O=C(O)CCCN1CCC(O[C@@H](c2ccc(Cl)cc2)c2ccccn2)CC1 [Bepotastine (besilate)] |  |  |  |  | −0.38 |  |  |  |  | Cholesterol-free [1, 9]: 1.237; Complete ([1]; NCI-H292 cells, complete media): 0.8985; Difference [1, 10]: −0.34; Cholesterol-free media + simvastatin (0.04 μM) [2, 11]: 1.245; Complete Media [2, 12]: 0.8639
3 | CC=CC(=O)N(CC)c1ccccc1C [Crotamiton] |  |  |  |  |  | 1.259 | 1.088 |  |  | Difference [1, 13]: −0.17; Cholesterol-free ([1]; NCI-H292 cells, FDA drug library screen, cholesterol-free media without statin): 1.084; Complete [1, 7]: 0.9155; Difference [2, 16]: −0.17
4 | Cc1ccnc(NS(=O)(=O)c2ccc(N)cc2)n1 [Sulfamerazine] |  |  |  |  | −0.81 |  |  |  |  | Difference [1, 17]: −0.49; Cholesterol-free [1, 18]: 1.498; Complete [1, 19]: 1.009; Cholesterol-free media + simvastatin (0.04 μM) [2, 11]: 2.163; Complete Media [2, 12]: 1.355
5 | CN[C@H]1C(=O)N[C@@H]2Cc3ccc(cc3)Oc3cc4cc(c3O[C@@H]3O[C@H](C(=O)O)[C@@H](O)[C@H](O)[C@H]3NC(=O)CCCCCCCCC(C)C)Oc3ccc(cc3Cl)[C@@H](O)[C@@H]3NC(=O)[C@H](NC(=O)[C@@H]4NC(=O)[C@@H](NC2=O)c2cc(cc(O)c2Cl)Oc2cc1ccc2O)c1ccc(O)c(c1)-c1c(O[C@H]2O[C@H](CO)[C@@H](O)[C@H](O)[C@@H]2O)cc(O)cc1[C@@H](C(=O)NCCCN(C)C)NC3=O [Dalbavancin (hydrochloride)] |  |  |  |  |  | 1.058 | 0.8779 |  |  | Difference [1, 13]: −0.27; Cholesterol-free [1, 9]: 1.639; Complete ([1]; NCI-H292 cells, complete media): 1.366; Difference [2, 16]: −0.18
6 | Cc1cc(=O)[nH]c(=S)[nH]1 [Methylthiouracil] |  |  |  |  | −0.21 | 1.089 | 0.882 |  |  | Cholesterol-free [1, 9]: 1.055; Complete ([1]; NCI-H292 cells, complete media): 0.7083; Difference [1, 10]: −0.35
7 | c1ccc(Cc2nc3ccccc3[nH]2)cc1 [Bendazol] | 1.234 | 1.354 | 1.208 | 1.472 |  |  |  | 0.12 | 0.26 | 
8 | CN1[C@@H]2CC[C@H]1C[C@@H](OC(=O)c1c[nH]c3ccccc13)C2 [Tropisetron] |  |  | 0.8445 | 1.139 |  |  |  |  | 0.29 | Cholesterol-free [1, 9]: 1.242; Complete ([1]; NCI-H292 cells, complete media): 0.8867; Difference [1, 10]: −0.36
9 | Cc1onc(-c2ccccc2)c1-c1ccc(S(N)(=O)=O)cc1 [Valdecoxib] | 0.9021 | 0.9224 |  |  |  |  |  |  | 0.03 | Difference [1, 3]: 0.02; Cholesterol-free media + simvastatin (0.04 μM) [2, 22]: 0.9234; Complete Media [2, 23]: 0.9538
10 | CN(CC(=O)O)C(=N)N [Creatine] |  |  | 1.925 | 1.831 | −0.09 |  |  |  |  | Difference [1, 17]: −0.96; Cholesterol-free [1, 18]: 2.303; Complete [1, 19]: 1.348
11 | Gadobutrol | 0.939 | 0.9511 |  |  | −0.25 | 1.273 | 1.022 |  |  | Difference [1, 3]: 0.01
12 | O=C1c2ccccc2C(=O)C1c1ccccc1 [Phenindione] | 0.7484 |  |  |  | −0.17 | 1.567 | 1.395 | 0.40 |  | 
13 | CC(C)(C)c1cc(NC(=O)Nc2ccc(-c3cn4c(n3)sc3cc(OCCN5CCOCC5)ccc34)cc2)no1 [Quizartinib] | 0.663 | 0.7657 |  |  | −0.21 | 1.022 | 0.8076 | 0.10 |  | 
14 | C[N+]1(C)[C@@H]2CC(OC(=O)C(O)(c3cccs3)c3cccs3)C[C@H]1[C@@H]1O[C@@H]12.[Br-] (some centres unmarked) [Tiotropium (Bromide)] |  |  |  |  |  |  |  |  |  | Cholesterol-free [1]: 1.101; Complete [1]: 0.8685; Difference [1]: −0.23; Cholesterol-free media + simvastatin (0.04 μM) [2]: 2.468; Complete Media [2]: 1.196; Difference [2]: −1.27
15 | COc1ccc(C2C(=O)c3ccccc3C2=O)cc1 [Anisindione] | 0.8915 | 1.35 | 1.296 | 1.617 |  |  |  | 0.46 | 0.32 | 
16 | Cc1cccc(C)c1NC(=O)C1CCCCN1C (centres unmarked) [Mepivacaine (hydrochloride)] |  |  | 1.253 | 1.396 |  |  |  |  | 0.14 | Difference [1, 17]: −0.61; Cholesterol-free [1, 18]: 1.413; Complete [1, 19]: 0.805
17 | CCOC(=O)O[C@]1(C(=O)OCCl)CC[C@H]2[C@@H]3CCC4=CC(=O)C=C[C@]4(C)[C@H]3[C@@H](O)C[C@@]21C [Loteprednol Etabonate] | 0.5384 | 0.8969 | 0.9128 | 1.184 |  |  |  | 0.36 | 0.27 | 
18 | CC(C)(O)CNc1nc(Nc2ccnc(C(F)(F)F)c2)nc(-c2cccc(C(F)(F)F)n2)n1 [Enasidenib] |  |  |  |  |  |  |  |  | 0.04 | Difference [1, 3]: −0.30; Cholesterol-free [1, 9]: 1.312; Complete ([1]; NCI-H292 cells, complete media): 1.013; Cholesterol-free media + simvastatin (0.04 μM) [2, 22]: 0.8158; Complete Media [2, 23]: 0.8552
19 | COC1=C[C@@H]2[C@@H]3Cc4ccc(OC)c(O)c4[C@]2(CCN3C)CC1=O [Sinomenine hydrochloride] | 1.217 | 1.524 |  |  |  | 1.006 | 0.7844 |  |  | Difference ([1]; complete vs cholesterol-free media, […]): 0.31; Difference [2, 16]: −0.22
20 | C[C@H]1O[C@@H](O[C@H]2[C@@H](O)C[C@H](O[C@H]3[C@@H](O)C[C@H](O[C@H]4CC[C@@]5(C)[C@H](CC[C@@H]6[C@@H]5CC[C@]5(C)[C@@H](C7=CC(=O)OC7)CC[C@]65O)C4)O[C@@H]3C)O[C@@H]2C)C[C@H](O)[C@@H]1O [Digitoxin] | −0.01931 | 0.0198 |  |  |  |  |  |  |  | Difference [1, 13]: 0.04; Cholesterol-free media + simvastatin (0.04 μM) ([2]; NCI-H292 cells, cholesterol-free media with simvastatin 0.04 μM, FDA drug library screen (TABLE 2)): 0.01053; Complete Media ([2]; NCI-H292 cells, complete media, FDA drug library screen (TABLE 2)): −0.02212; Difference ([2]; complete media minus cholesterol-free media + simvastatin (0.04 μM), […]): −0.03
21 | COC(=O)c1cc(OC)c2c(c1-c1c(CO)cc(OC)c3c1OCO3)OCO2 [Bicyclol] | 0.552 | 0.7456 |  |  | −0.31 |  |  | 0.19 |  | Cholesterol-free media + simvastatin (0.04 μM) [2, 11]: 1.331; Complete Media [2, 12]: 1.025
22 | CC#CC(=O)N1CCC[C@H]1c1nc(-c2ccc(C(=O)Nc3ccccn3)cc2)c2c(N)nccn12 [Acalabrutinib] | 0.7449 | 0.989 | 1.302 | 1.618 |  |  |  | 0.24 | 0.32 | 
